Data from patent US11801242B2, “Compositions and methods for adjuvant cancer therapeutics” (DUKE UNIVERSITY, priority 2018, dated 2023).

Columns and labels:
HT1080 cells = assay: HPRT mutagenesis assay; format: cell-based, human; conditions: RE01 1.5 μM, cisplatin 0.5 μM
Method: For the hypoxanthine-guanine phosphoribosyl transferase (HPRT) mutagenesis assay, cells were first grown in HAT (complete media with 100 μM Hypoxanthine, 0.4 μM Aminopterin and 16 μM Thymidine) media (ThermoFisher) for 14 days to weed out any spontaneous HPRT mutants. After HAT selection, cells were exposed to cisplatin at the 0.5 μM concentration for 24 hours. Then, in fresh media, RE01 at a concentration of 1.5 μM was added to cells. After 24 hours of drug treatment, cells were trypsinized and washed with PBS. While 200-600 cells were plated in complete media in triplicates in 6-well plates to determine clonal efficiency, the rest of the cells were plated in complete media to allow the expression of the phenotype for 8 days. Then, 500,000 cells per treatment were plated in sextuplicate in 10 cm dishes in 6-TG media to allow the proliferation of mutated HPRT^− cells. Colonies were fixed (50% methanol and 10% glacial acetic acid), stained (0.02% Coomassie brilliant blue R-250 stain in methanol: acetic acid: water in a ratio of 46.5:7:46.5 (v/v/v)), and counted after 14-20 days. The HPRT mutation frequency was calculated as the ratio of the number of HPRT^− colonies in 6-TG media to the number of surviving colonies plated in complete media to determine clonal efficiency.

KP cells = assay: CellTiter-Glo Luminescence cell viability assay; format: cell-based, mouse
Method: Relative viability of cells in response to RE01 and DNA-damaging agents was assessed by the CellTiter-Glo Luminescence cell viability assay (Promega) that determines the number of viable cells based on the relative amount of ATP in the culture, which is directly proportional to the number of metabolically active cells. Briefly, 10,000 cells were plated in each well of a 96-well, white, clear flat bottom plate (Corning). Increasing doses of drugs in various combinations-RE01 alone or in combination with DNA-damaging agents-were added into the plates after 24 hours. The RE01 compound was dissolved in 0.1% DMSO and other drugs were dissolved in solvents ascribed by the manufacturer. In all cases, DMSO controls were run in parallel to the drug treatments. Cells were treated with DMSO or cisplatin (0.5 uM) for 24 hours, followed by RE01 (1.5 uM) treatment for additional 24 hours. Cells were washed and allowed to form colonies for 5-7 days and counted after staining with Coomassie brilliant blue R-250 stain. The relative viability of cells was monitored after 24 hours of drug treatment by adding CellTiter-Glo Luminescence stain to an equilibrated plate per the manufacturer's instructions. Luminescence was measured on the plate reader (Tecan Spark 10M). Relative luminescence, which is indicative of relative survival of metabolically active cells, was calculated by dividing the luminescence of treated samples with DMSO controls.
Viabilities of HT1080 (human fibrosarcoma), A375 (human melanoma), LNCap (human prostate adenocarcinoma), KP (mouse Kras^G12D;p53^−/− lung adenocarcinoma), and AG01522 (human primary fibroblasts) cells were assessed by the Promega CellTiter-Glo Luminescence cell viability assay. Relative luminescence intensities to samples treated with 0 μM RE01 (panel A) or with 0 μM DNA-damaging agents (panels B and C) are plotted. Blue lines represent single agent treatments, and orange lines represent RE01 combination treatments. […]

A375 cells = assay: qRT-PCR of p21 mRNA; format: cell-based, human; conditions: combination RE01 1.5 μM and cisplatin 1 μM
Method: Total RNA was isolated by using the RNeasy Mini kit (Qiagen) from cells treated with RE01 (1.5 μM), cisplatin (1 μM) and a combination of both RE01 (1.5 μM) and cisplatin (1 μM). 5 ng of RNA from each sample was mixed with 10 μl of Applied Biosystems™ PowerUp™ SYBR™ Green Master Mix (ThermoFisher), 1 μl of MultiScribe™ Reverse Transcriptase (ThermoFisher), 0.1 μl of RNaseOUT™ Recombinant Ribonuclease Inhibitor and 5.9 μl of RNase-free water, and run in a one-step qRT-PCR reaction. Each reaction was run in triplicate. Primers used were: p21 F 5′-[…]-3′ (SEQ ID NO: 9), p21 R 5-CGGCGTTTGGAGTGG TAGAAA-3′ (SEQ ID NO: 10); GAPDH F 5′-[…]-3′ (SEQ ID NO: 11), GAPDH R 5′-[…]-3′ (SEQ ID NO: 12).

A375 xenograft tumors = assay: Murine xenograft tumor model; format: in vivo, mouse; conditions: co-administration RE01 1.6 mg/kg with cisplatin 1 mg/kg, intratumoral, twice per week for 5 weeks
Method: NCRNU-F (nude) female, 6-8-week-old mice were divided into 4 groups (with 6 animals per group) for saline, cisplatin alone, RE01 alone, and cisplatin and RE01 combination treatments. Three million A375 cells mixed in matrigel (Corning) were injected into each flank of the 6 mice to generate 10-12 xenograft tumors per treatment group. After the tumors grew to a total tumor volume of at least 100 mm^3, the drugs (saline, cisplatin alone, RE01 alone, and cisplatin and RE01 combination) with a total volume of 100 μL per injection were injected directly into the tumor. Treatments were carried out twice per week for 5 weeks. On the dosing day, tumors were first measured with calipers, weights were recorded, and then the drugs would be injected directly into the tumors. The mice were sedated with isofluorane prior to measurements and treatments.
The drugs were formulated in 10% EtOH, 40% PEG400, and 50% saline for all the four types of treatments. Cisplatin was injected at a dose of 1 mg/kg per animal and RE01 was administered at a 1.6 mg/kg per animal. In the combination treatment of cisplatin and RE01, the same doses of 1 mg/kg and 1.6 mg/kg respectively per animal were administered. Tumor volumes were calculated by the formula (W^2×L)/2 as described previously.

CC(C)CC(=O)c1c(Nc2ccc(Cl)cc2Cl)[nH]c2c(Cl)ccc([N+](=O)[O-])c2c1=O [RE01, 8-chloro-2-((2,4-dichlorophenyl)amino)-3-(3-methylbutanoyl)-5-nitroquinolin-4(1H)-one]
frequency of spontaneous and cisplatin-induced HPRT mutations (HT1080 cells): decreased | sensitization to DNA-damaging agent (KP cells; RE01 1.5 μM with 4-nitroquinolone 1-oxide (4-NQO)): sensitized | sensitization to DNA-damaging agent (KP cells; RE01 1.5 μM with benzo[a]pyrene diol epoxide (BPDE)): sensitized | sensitization to DNA-damaging agent (KP cells; RE01 1.5 μM with methyl methanesulfonate (MMS)): sensitized | levels of the p21 biomarker (A375 cells): elevated levels | growth of xenograft human melanomas (A375 xenograft tumors): strikingly suppresses
